What was measured:
BR5-Akt-Luc2 tumors = assay: Cisplatin and vaccine combination therapy in late stage ovarian cancer model; type: in vivo, FVB mice; details: cisplatin 2 mg/kg intraperitoneally Day 9, vaccine Day 10 after tumor challenge
Procedure: Tumor-bearing or naïve female FVB mice were vaccinated intraperitoneally with irradiated (100 Gy at […], 15 mA, 48 Gy/min; or a Cs-137 gamma irradiator with a dose rate of 63 cGy/min) or silicified BR5-Akt (or BR5-Akt-Luc2 for vaccine viability analysis) cells (with TLR ligands as indicated) using doses of 3×10^4, 3×10^5, 3×10^6, or 3×10^7 Si-cells/mouse in 200 μl of PBS at the indicated schedules. Alternatively, mice were vaccinated subcutaneously (SC) with 3×10^6 Si-cells by scruffing the skin at the back of their neck and injecting an equivalent volume into the loose fold of skin. Mice that cleared all tumor cells based on IVIS Spectrum bioluminescent imaging were re-challenged with 2×10^5 BR5-Akt-Luc2 cancer cells at a later date, as indicated for each study. All control (no Tx) mice received sham PBS injections (200 μl/mouse). Single agent or combination therapy with cisplatin used IP administration of cis-diamineplatinum (II) dichloride (Sigma-Aldrich, St. Louis, MO) on Day 9 at 2 mg/kg in physiological saline.
For in vivo monitoring of tumor burden, mice with BR5-Akt-Luc2 tumors were administered 150 mg luciferin/kg by intraperitoneal injection, with a 10-minute delay before imaging. Mice were then anesthetized using 2.5% isoflurane, and 2D/3D bioluminescence images were acquired using an in vivo imaging system (XENOGEN IVIS SPECTRUM, PerkinElmer, Inc., Waltham, MA). […]

[1] = tested on: dendritic cells (CD11c^+); assay: In vitro activation of dendritic cells (CD40) by silicified tumor cells and doxorubicin-treated cancer cell supernatant; type: cell-based; details: supernatant from cancer cells treated with doxorubicin 5 ng/mL or 50 ng/mL, with vaccine
Procedure: Dendritic cells were seeded in 12-well plates at a density of 100,000 cells per well. After 24 hours, supernatant from cancer cells treated with doxorubicin (5 ng/mL or 50 ng/mL) was added, with or without 100,000 silicified tumor cells. Cells were labeled with fluorescent antibodies specific for CD40 and CD11c and analyzed using the Attune Flow Cytometer.

N.N.[Cl][Pt][Cl] [Cisplatin, cis-diamineplatinum (II) dichloride]
survival (BR5-Akt-Luc2 tumors): improved survival
tumor burden (bioluminescence) (BR5-Akt-Luc2 tumors): reduced tumor burden in some mice

COc1cccc2c1C(=O)c1c(O)c3c(c(O)c1C2=O)C[C@@](O)(C(=O)CO)C[C@@H]3O[C@H]1C[C@H](N)[C@H](O)[C@H](C)O1 [doxorubicin]
activation of dendritic cells (surface expression of CD40) [1]: enhanced vaccine-mediated activation of dendritic cells

Source: patent US20240115676A1, “SILICIFIED TUMOR CELL COMPOSITIONS AND METHODS” (UNM Rainforest Innovations, priority 2020, published 2024)
